Consider 16 compounds from US9108905B2, “TRPA1 antagonists” (AbbVie Inc., priority 2008, dated 2015).

The target of data set [1] is Human TRPA1 (Homo sapiens (Human), UniProt O75762). Briefly: FLIPR based intracellular Ca2+ assay and membrane potential assay, inhibition of AITC-activated TRPA1. Particulars: Table 1, AITC as agonist, HEK293-F cells transiently expressing human TRPA1. The format is cell-based. On the procedure:
Molecular biology and transient expression were performed as described in Chen, J. et al., Journal of Biomolecular Screening 2007, 12, 61-69. Briefly, TRPA1 full length cDNA was amplified from human dorsal root ganglia total RNA (BD Bioscience Clontech, Palo Alto, Calif., USA) and was cloned into pcDNA3.1/V5-His Topo vector (Invitrogen, Carlsbad, Calif.). Large scale transient transfection was performed using the FreeStyle™ 293 Expression System as recommended by the manufacturer (Invitrogen). HEK293-F cells were grown in suspension in flasks (cell volume 30 mL to 1 liter) or in a Wave Bioreactor (Wave Biotech, Somerset, N.J.) (6 liters). To support high density, suspension culture and transfection, cells were cultured in FreeStyle 293 media, an optimized, serum free formulation. 293fectin™ (Invitrogen) was used as transfection reagent. In a transfection of 3×10^7 cells (30 mL volume), 30 μg of plasmid DNA and 40 μL 293 fectin were used. For a larger volume transfection, each reagent was scaled up proportionally. Two days post-transfection, cells were harvested by centrifugation (1000×g, 5 minutes) and resuspended to a density of 1.5×10^7 cells/mL in freezing medium (Freestyle media/10% serum/10% DMSO). Cells were transferred into cryovials in 2 mL aliquots, and these vials were placed in Nalgene Mr. Frosty slow-freeze devices (Sigma-Aldrich, St. Louis, Mo.) at −80° C. As needed, vials were removed from −80° C. and quickly thawed in a 37° C. water bath. Cells were aseptically transferred into conical tubes containing Freestyle media (10 mL/vial). After centrifugation at 1,000×g for 3-5 minutes, medium was removed by aspiration and cells were resuspended in Freestyle medium at desired densities (typically 1×10^6 cells/mL). Re-suspended cells were seeded into black-walled clear-bottom 96-well Biocoat™ poly-D-lysine assay plates (BD Biosciences, Bedford, Mass.)(10^5 cells/well) and incubated overnight at 37° C. under a humidified 5% CO2 atmosphere.
FLIPR Based Intracellular Ca^2+ Assay and Membrane Potential Assay
Ca^2+ influx was measured using a FLIPR calcium assay kit (R8033; Molecular Devices, Sunnyvale, Calif.). The Ca^2+ indicator dye was dissolved in Hanks' balanced salt solution supplemented with 20 mM HEPES buffer (HBSS/HEPES) according to the manufacturer instructions. […] (4×) solutions of the test compounds were prepared in HBSS/HEPES, and 50 μL were added to the cells at a delivery rate of 10 μL/sec. Changes in fluorescence were measured over time in a fluorometric imaging plate reader (FLIPR, Molecular Devices). Two additions were made over the course of an experimental run. For agonist experiments, assay buffer was added at the 10 s time point, followed by addition of agonist at the 3 minute 10 sec time point. For antagonist experiments, the antagonist was added at the 10 sec time point, followed by addition of the agonist 3 minutes later. Final assay volume for both the agonist and antagonist experiments was 200 μL. Total length of an experimental run was 6.5 minutes.
Data was analyzed with GraphPad Prism® software (GraphPad Software, San Diego, Calif.), using a four-parameter logistic Hill equation to curve-fit concentration-effect data and derive EC50 or IC50 values. Numerical values are reported as mean±SEM (n=number of experiments). SEM is calculated by dividing the standard deviation by the square root of the sample size […].
Changes in membrane potential were measured in hTRPA1-expressing LSTT cells using a FLIPR membrane potential assay kit (R8034, Molecular Devices). The procedure for thawing and plating the LSTT cells was identical to the Ca^2+ influx assay (see above). The membrane potential dye was dissolved in HBSS/HEPES buffer according to the manufacturer's instructions, and then cells were loaded with dye (100 μL/well) for 45 minutes to 2 hours at room temperature.

Data set [2] can be described thus: Pharmacokinetics after oral dose in fasted male Sprague-Dawley rats (plasma and brain). The class given is in vivo. Conditions: rat. On the procedure:
Groups of three fasted male Sprague-Dawley rats received a 10 μmol/kg ([…]) oral dose of the test compound, administered by gavage. The compounds were prepared as a solution in a 10% DMSO/poly(ethylene glycol)-400 (v/v). Blood samples were obtained from each animal at various time points up to eight hours after dosing.
Test compound was selectively extracted from plasma and brain homogenate using liquid-liquid extraction with tert-butylmethylether. The compounds of interest were separated from co-extracted contaminants on a 50×3 mm, Luna CN column (Phenomenex), with an acetonitrile:0.1% aqueous trifluoroacetic acid mobile phase at a flow rate of 0.35 ml/min. Plasma concentrations were determined by HPLC-MS/MS on an API2000 with Turbo Ion Spray interface, with MRM detection in the positive ionization mode. To calibrate compound concentration, a separate portion of each tissue sample was spiked with a known quantity of test compound and analyzed simultaneously with the samples.

The test system of data set [3] is osteoarthritic rats. Briefly: Effects on hind limb grip force in MIA-induced osteoarthritic rats. The class given is in vivo. As to the method:
Unilateral knee joint osteoarthritis was induced in the rats by a single intra-articular (i.a.) injection of sodium monoiodoacetate (MIA) (Sigma, St. Louis, Mo.) (3 mg in 0.05 mL sterile isotonic saline) into the joint cavity using a 26G needle under light (2-4%) halothane (Halocarbon Laboratories, River Edge, N.J.) anesthesia. Following injection, the animals were allowed to recover from the effects of anesthesia (usually 5-10 minutes) before returning them to their home cages. Animals were tested 21 days after MIA injection. Measurements of peak hind limb grip force were conducted by recording the maximum compressive force exerted on the hind limb strain gauge setup, in a commercially available grip force
(§1) FIG. 1—depicts the effect of Example 1 on hindlimb grip force in osteoarthritic rats measurement system (Columbus Instruments, Columbus, Ohio). […] During testing, each rat was gently restrained by grasping around its rib cage and then allowed to grasp the wire mesh frame (10-12 cm^2) attached to the strain gauge. The experimenter then moved the animal in a rostral-to-caudal direction until the grip was broken. Each rat was sequentially tested twice at approximately 2-minute interval to obtain a raw mean grip force (CFmax). […] At the 100 μmol/kg dose in the osteoarthritis grip force model, the measured plasma concentration of Example 1 was 6.2 μM.

The nature of data set [4]: Plasma concentration measured in the osteoarthritis grip force model. The format is in vivo, rats.
Description: as §1, with “(CFmax). This raw mean grip force data was in turn converted to a maximum hind limb compressive force (CFmax) (gram force) per kg body weight for each animal. A group of age matched naïve animals was added to each experiment and the data obtained from the different dose groups for the compound being tested were compared to the naïve group.” for “(CFmax).”

Human TRPA1, sequence (O75762 whole entry): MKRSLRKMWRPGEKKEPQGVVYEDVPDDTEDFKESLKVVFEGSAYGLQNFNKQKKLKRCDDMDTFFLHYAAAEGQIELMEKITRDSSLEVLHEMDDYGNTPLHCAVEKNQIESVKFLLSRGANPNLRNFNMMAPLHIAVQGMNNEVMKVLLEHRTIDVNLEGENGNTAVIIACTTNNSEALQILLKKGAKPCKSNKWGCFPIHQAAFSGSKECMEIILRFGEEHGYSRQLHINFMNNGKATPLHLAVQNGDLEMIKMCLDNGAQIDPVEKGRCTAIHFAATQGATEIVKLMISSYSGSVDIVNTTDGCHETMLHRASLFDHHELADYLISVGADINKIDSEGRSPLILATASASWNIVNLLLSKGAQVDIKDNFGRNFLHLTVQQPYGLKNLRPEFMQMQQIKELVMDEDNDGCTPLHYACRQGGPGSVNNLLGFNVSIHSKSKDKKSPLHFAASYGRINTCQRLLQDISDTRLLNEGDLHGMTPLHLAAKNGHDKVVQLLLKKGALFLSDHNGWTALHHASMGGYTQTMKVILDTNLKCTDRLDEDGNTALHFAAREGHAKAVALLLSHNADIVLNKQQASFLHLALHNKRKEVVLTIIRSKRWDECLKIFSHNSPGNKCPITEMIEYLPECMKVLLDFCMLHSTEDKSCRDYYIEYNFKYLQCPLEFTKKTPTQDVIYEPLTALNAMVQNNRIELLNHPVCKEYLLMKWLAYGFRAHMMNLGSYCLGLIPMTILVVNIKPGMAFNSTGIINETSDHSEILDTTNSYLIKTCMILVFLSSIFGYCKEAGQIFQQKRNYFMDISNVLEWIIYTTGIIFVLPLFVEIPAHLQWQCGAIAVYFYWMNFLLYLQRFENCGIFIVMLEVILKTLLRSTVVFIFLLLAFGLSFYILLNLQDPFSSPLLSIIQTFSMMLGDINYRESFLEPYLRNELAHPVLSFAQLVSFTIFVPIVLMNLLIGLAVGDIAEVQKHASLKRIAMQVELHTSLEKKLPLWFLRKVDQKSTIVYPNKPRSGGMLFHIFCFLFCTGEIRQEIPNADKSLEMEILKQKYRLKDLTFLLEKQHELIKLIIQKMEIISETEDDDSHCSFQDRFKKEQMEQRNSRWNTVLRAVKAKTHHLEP

Regarding `CCCCC(/C=C/c1ccc(F)cc1)=N\O` [Example 16, (1E,3E)-1-(4-fluorophenyl)hept-1-en-3-one oxime], the IC50 – broadly, the concentration that gives 50% inhibition – in data set [1] is above 100 µM. As to `CCCCC(=N\O)/C(C)=C/c1ccc(F)cc1` [Example 6, (1E,3E)-1-(4-fluorophenyl)-2-methylhept-1-en-3-one oxime], the IC50 in data set [1] worked out at 4.4 µM.

As to `CCC(=N\O)/C(C)=C/c1ccc(F)c(F)c1` [Example 14, (1E,3E)-1-(3,4-difluorophenyl)-2-methylpent-1-en-3-one oxime], in data set [1], the half-maximal inhibitory concentration (IC50) amounted to 0.574 µM.

“(1E,3E)-1-(4-fluorophenyl)pent-1-en-3-one oxime and (1E,3Z)-1-(4-fluorophenyl)pent-1-en-3-one oxime, about 1:1 mixture [Example 13]”: the IC50 in data set [1] was determined as 9.46 µM. Still for that read-out and setting: as for `CC(=C\c1ccc(F)cc1)/C(=N/O)C(C)C` [Example 8, (1E,3E)-1-(4-fluorophenyl)-2,4-dimethylpent-1-en-3-one oxime], the figure is 3.3 µM; as for `CC(=C\c1ccc(F)cc1)/C(=N/O)C(C)(C)C` [Example 5, (1E,3E)-1-(4-fluorophenyl)-2,4,4-trimethylpent-1-en-3-one oxime], 8 µM; as for `CC(/C=C/c1ccc(F)cc1)=N\O` [Example 11, (2E,3E)-4-(4-fluorophenyl)but-3-en-2-one oxime], 20.6 µM. In turn, `CCC(=N\O)/C(C)=C/c1cc(F)c(F)c(F)c1` [Example 15, (1E,3E)-2-methyl-1-(3,4,5-trifluorophenyl)pent-1-en-3-one oxime] returned an IC50 in data set [1] of 4.67 µM. In data set [1], `CCCC(/C=C/c1ccc(F)cc1)=N\O` [Example 12, (1E,3E)-1-(4-fluorophenyl)hex-1-en-3-one oxime] registered an IC50 of 5.91 µM. Turning to `CC(=C\c1ccc(F)cc1)/C(=N\O)C(C)C` [Example 7, (1E,3Z)-1-(4-fluorophenyl)-2,4-dimethylpent-1-en-3-one oxime], the IC50 in data set [1] came out at 0.85 µM. Same read-out and setting: as for `CCC(=N\O)/C(C)=C/c1ccccc1F` [Example 3, (1E,3E)-1-(2-fluorophenyl)-2-methylpent-1-en-3-one oxime], the figure is 4.6 µM. As to `CCC(=N\O)/C(C)=C/c1ccc(F)cc1` [Example 1, (1E,3E)-1-(4-fluorophenyl)-2-methylpent-1-en-3-one oxime], in data set [2] (10 umol/kg, oral, plasma), the highest concentration (Cmax) (usually the maximum level reached in the sampled fluid or tissue) was determined as 720 nM. In addition, in data set [2] (brain and plasma, 10 μmol/kg, after oral administration, text calls it brain/plasma ratio), the concentration ratio (Kp) (in general, tissue or fluid exposure divided by exposure in the circulation) worked out at 1.2. The bioavailability (usually the share of a dose that reaches the circulation, judged against a reference dose that is usually intravenous) in data set [2] (plasma, 10 umol/kg, oral gavage, solution in 10% DMSO/PEG-400) was 38%. The ED50 – broadly, the dose that gives a 50% effect, or the effect in half of the subjects – in data set [3] (Rattus norvegicus, po, 21 days after MIA injection, 95% CI 79-158 μmol/kg, read-out: ED50, hindlimb grip force) was found to be 112 µmol/kg. In addition, the “efficacy in osteoarthritis grip force model” value in data set [3] (p.o.) is given as “fully efficacious”. For the same compound, the measured plasma concentration in data set [4] (100 μmol/kg oral dose, osteoarthritis grip force model) worked out at 6.2 µM. The “plasma and brain exposure” value in data set [4] (with increasing oral dose, rat) is “excellent plasma and brain exposure”. `CCC(=N\O)/C(C)=C/c1ccc(F)c(C)c1` [Example 17, (1E,3E)-1-(4-fluoro-3-methylphenyl)-2-methylpent-1-en-3-one oxime]: in data set [1], the half-inhibitory concentration (IC50) was above 100 µM. Still for that read-out and setting: as for `CCC(=N\O)/C(C)=C/c1ccc(F)c(Cl)c1` [Example 9, (1E,3E)-1-(3-chloro-4-fluorophenyl)-2-methylpent-1-en-3-one oxime], the figure is 6 µM; as for `CCCC(=N\O)/C(C)=C/c1ccc(F)cc1` [Example 4, (1E,3E)-1-(4-fluorophenyl)-2-methylhex-1-en-3-one oxime], 0.5 µM; as for `CCC(=N\O)/C(C)=C/c1ccc(F)c(C(F)(F)F)c1` [Example 18, (1E,3E)-1-[4-fluoro-3-(trifluoromethyl)phenyl]-2-methylpent-1-en-3-one oxime], above 100 µM.
